# According to PMC9756341 (Journal of the American Chemical Society, 2022):
# Values joined by “and” are separate entries in the source; they are usually repeats but may differ in a detail not shown here. Equal values may be shown once.
# How the values were obtained:
# Capan-2 cells [1] = details: 0.13 to 2 μM, Incucyte live cell imaging every 4 h for 5 days, serum-free DMEM
# Description: Incucyte assays for proliferation and toxicity
# Proliferation was quantified using the Incucyte software by measuring percentage confluency. Sytox
# green was used as a marker for cell death. Cell death was quantified by measuring total green
# fluorescence of each well.
# Incucyte (proliferation and toxicity) assays. Capan-2 cells were seeded in a sterile 96 well plate
# (10,000 cells per well). The outermost wells were left empty to mitigate edge effects. Cells were grown
# in growth media (10% FBS) overnight to adhere. The next day, the media was replaced with serum-free
# DMEM (117 µL) containing Sytox green (250 nM) or a DMSO control.
# [2] = system: intracellular proteases of Capan-2 cells; details: live Capan-2 cells or cell lysate, 2 h, NeutrAvidin-HRP blot
# Description: S12. Probe treatment in live Capan-2 cells and cell lysate
# Figure S12. Capan-2 cells were grown to 80% confluency, followed by the addition of bABP 17 or FP-biotin for 2 h. Cells were lysed, boiled with Laemmli buffer and analysed using a NeutrAivdin-HRP western blot (in cell blot). Standard Capan-2 lysate was also treated with the same amounts of bABP 17 and FP-biotin, followed by the same analysis (in lysate blot).
# (1 picture or pasted object on this page, not shown here)
# KLK8 = target: T1, KLK8 (Homo sapiens, UniProt O60259); assay: Enzyme kinetics to calculate kobs/I, KLK8; assay type: biochemical
# T1 construct: Active recombinant FGFBP1 (Code 1593-FB), HSPG2 (Code 2364-ER), uPA (Code 1310-SE), tPA (Code 7449-SE) and KLK8 (Code 2025-SE) were obtained from BioTechne; purchased BioTechne 2025-SE
# T1 sequence (O60259 33-260): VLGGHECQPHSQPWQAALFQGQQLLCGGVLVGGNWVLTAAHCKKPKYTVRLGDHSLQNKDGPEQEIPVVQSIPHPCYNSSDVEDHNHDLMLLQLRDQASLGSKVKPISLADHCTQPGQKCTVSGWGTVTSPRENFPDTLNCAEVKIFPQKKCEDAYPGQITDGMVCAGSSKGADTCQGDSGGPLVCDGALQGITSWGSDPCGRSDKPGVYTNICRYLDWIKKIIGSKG
# [3] = target: T2, tissue plasminogen activator (tPA) (Homo sapiens, UniProt P00750); assay: Enzyme kinetics to calculate kobs/I, tPA; assay type: biochemical; details: ratio of kobs/I
# T2 construct: purchased BioTechne 7449-SE
# Description: (§1) Reagents were obtained from VWR, Sigma Aldrich, Sartorius, Fluorochem, AGTC, Novabiochem, TCI, Alfa Aesar, Iris Biotech, Thermofisher and Bachem. […]
# (§2) (Code 7449-SE) and KLK8 (Code 2025-SE) were obtained from BioTechne. KLK6 was obtained from the group of Aubry Miller (DKFZ) and KLK7 was obtained from the group of Judith Clements (QUT).
# (§3) The manufacturer’s recommended buffers were used with uPA and tPA but not KLK8. The KLK6 assay buffer was as follows: 50 mM Tris 150 mM NaCl, 1 mM EDTA, 0.05% Tween20, pH 7.5. The KLK7/8 buffer was as follows: 100 mM Na2PO4, 0.01% Tween20, pH 8.5. Fluorescence measurements were measured using an Envision plate reader. Fluorescence data was processed using Graphpad Prism 8. […]
# (§4) 2-chlorotrityl chloride resin. […]
# [4] = target: T3, urokinase plasminogen activator (uPA) (Homo sapiens, UniProt P00749); assay: Enzyme kinetics to calculate kobs/I, uPA; assay type: biochemical; details: ratio of kobs/I
# T3 construct: purchased BioTechne 1310-SE
# Description: as §1, §2, §3, §4
# [5] = system: recombinant tPA, uPA, or KLK6; details: 2 h incubation, then fABP 21 for 1 h, in-gel fluorescence
# endogenous active KLK6 = details: Capan-2 conditioned media, streptavidin pulldown, KLK6 western blot
# Description: Conditioned media was incubated with bABP 17 (10 μM) or DMSO for 2 h, and labeled proteins enriched on magnetic streptavidin-loaded beads, eluted, and analyzed by western blot against a KLK6 antibody.
# Cell culture. Cells were cultured in their recommended culture media supplemented with 10% (v/v)
# foetal bovine serum at 37 °C and 5% CO2.
# Preparation of conditioned media. Cells were grown in standard growth media to 80% confluency in
# a T175 flask. The medium was removed, and the cells were washed with serum-free, phenol-red free
# RPMI. The cells were incubated with the same RPMI for 2 h. The medium was replaced once again
# with serum-free, phenol-red free RPMI and the cells were incubated for 48 h. The condition medium
# was collected and filtered through a 0.2 µm syringe filter. The medium was concentrated (25 mL to
# 0.75 mL) using a 3 kDa Mw cutoff spin filter to a final concentration of around 1 mg/mL. The protein
# concentration was measured using a BioRad DCTM protein assay.
# Pulldown experiments (western blot). Conditioned media was diluted with PBS to exactly 1 mg/mL.
# 200 µg of total protein was used per condition. The ABP or DMSO was added at a 1:100 dilution and
# the samples were shaken at RT for 1 h. The proteins were precipitated using the MeOH/H2O/CHCl3
# method. The pellet was washed twice with MeOH and dried in air for 5 min. The protein was
# resuspended in 2% SDS in PBS to a concentration of 10 mg/mL. PBS was added to gradually dilute
# the protein back to 1 mg/mL and the samples were centrifuged (17,000 g, 5 min). 5 µg of protein was
# set aside as the “before pulldown” samples. Magnetic streptavidin beads were washed three times with
# PBS. The rest of the protein was added into the beads and shaken at RT for 2 h. 5 µg of the supernatant
# was set aside for analysis, while the rest was discarded. The beads were washed three times with 1%
# SDS in PBS. […]
# were boiled at 95 °C for 5 min. The proteins were analysed via SDS-PAGE and western blot analysis. […]
# 10 min, followed by 180 V for 60 min. Gels were then taken for western blot or in-gel fluorescence. […]
# KLK7 = target: T4, KLK7 (Homo sapiens, UniProt P49862); assay: Enzyme kinetics to calculate kobs/I, KLK7; assay type: biochemical
# T4 construct: gift from the group of Judith Clements (QUT)
# Description: as §1, §2, §3, §4
# BxPC-3 cells = BxPC-3 cells (no active KLK6), 2 μM, 24 h, relative to DMSO
# Description: (§5) Next, the effect of KLK6 inhibition on migration and invasion of Capan-2 cells was assessed using a Boyden chamber assay.
# (§6) (13 µL per condition). Control conditions included puromycin (100 µg/mL), DMSO only, Sytox green only or DMSO + Sytox green. The final inhibitor concentrations ranged from 2 µM to 125 nM. The cells were placed into an Incucyte with the incubator set at 37 °C and 5% CO2. Phase and green fluorescence were analysed every 4 h for 5 days.
# (§7) Invasion/migration assays. Cell invasion was measured using Corning Fluoroblok inserts following a modified procedure11. Fluoroblok inserts were placed into the wells of a 24-well plate. Matrigel was suspended to 300 µg/mL in coating buffer (0.01M Tris, 0.7% NaCl, pH 8). The matrigel suspension (100 µL) was added into the Fluoroblok insert and the plate was left at 37 °C for 2 h. A migration control (with no matrigel) was also included. Cells were trypsinised and resuspended in serum-free DMEM.
# (§8) The leftover buffer in the chambers was decanted and 500 µL of cells (100,000 per well) were seeded into the apical chamber of the insert. DMEM with 10% FBS (750 µL) was added into the basal chamber as a chemoattractant. The plate was incubated at 37 °C and 5% CO2 for 24 h. The chambers were removed and placed into a new 24-well plate containing 50 µM of CellTracker CMHC dye in HBSS. The cells were stained for 0.5 h and the chamber was removed and placed into the previous plate containing DMEM with 10% FBS. The cells were imaged for blue fluorescence (ex/em = 375/460) using a Celena S inverted fluorescence microscope. Percentage invasion was calculated by quantifying the cell area
# Capan-2 cells [6] = details: Capan-2 cells (active KLK6), 2 μM, 24 h, relative to DMSO
# Description: as §5, §6, §7, §8
# KLK6 = assay: Enzyme kinetics to calculate kobs/I, KLK6; assay type: biochemical, human; details: KLK6 1.5 nM, fluorogenic substrate 22 5 µM, 50 mM Tris 150 mM NaCl 1 mM EDTA 0.05% Tween20 pH 7.5, room temperature, read every 30 s for 30 min, ex/em 380/440 nm, pseudo first order kinetics, corrected by (1 + [S]/KM), triplicates
# [7] = system: Capan-2 conditioned media proteome; details: 2 μM, 1 h, NeutrAvidin enrichment, LC–MS/MS, triplicate
# Description: Pulldown experiments (LC-MS/MS) Conditioned media was diluted with PBS to exactly 1 mg/mL.
# 300 µg of total protein was used per replicate. Each condition was performed in triplicate. The inhibitor
# or DMSO control (1:100 dilution) was incubated with the media at RT for 2 h with a gentle agitation.
# for 1 h. The proteins were precipitated using the MeOH/H2O/CHCl3 method. The pellet was washed
# twice with MeOH and dried in air for 5 min. The proteins were resuspended in 2% SDS, 50 mM HEPES
# in H2O (pH 8) to a concentration of 10 mg/mL. 50 mM HEPES was added to gradually dilute the protein
# back to 1 mg/mL and the samples were centrifuged (17,000 g, 5 min). A 1:1 mixture of NeutrAvidin
# agarose resin (15 µL per 300 µg protein) and control agarose resin (15 µL per 300 µg protein) was
# prepared and washed with 0.2% SDS, 50 mM HEPES. The test samples were added into the resin and
# the mixture was shaken at RT for 2 h. The supernatant was removed, and the beads were washed with
# 3 × 0.2% SDS, 50 mM HEPES and 3 × 50 mM HEPES. The beads were resuspended in 50 mM HEPES
# (50 µL). TCEP was added to a final concentration of 5 mM (1:20 dilution). Chloroacetamide was added
# to a final concentration of 10 mM (1:20 dilution). The mixture was shaken at RT for 30 min. To digest
# the peptides off the resin, 0.5 µL of trypsin (0.2 mg/mL stock) was added into each sample and the
# samples were shaken at 37 °C overnight. […]
# [8] = Fluoroblok insert without Matrigel
# [9] = Matrigel-coated Fluoroblok insert
# T4 sequence (P49862 30-253): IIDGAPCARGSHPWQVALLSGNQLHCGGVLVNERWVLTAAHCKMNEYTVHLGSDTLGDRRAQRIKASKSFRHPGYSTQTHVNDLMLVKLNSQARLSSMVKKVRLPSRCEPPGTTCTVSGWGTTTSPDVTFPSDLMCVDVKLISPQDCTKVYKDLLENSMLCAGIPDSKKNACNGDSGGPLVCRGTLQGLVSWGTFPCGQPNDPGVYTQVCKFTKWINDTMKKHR
# T2 sequence (P00750 36-562): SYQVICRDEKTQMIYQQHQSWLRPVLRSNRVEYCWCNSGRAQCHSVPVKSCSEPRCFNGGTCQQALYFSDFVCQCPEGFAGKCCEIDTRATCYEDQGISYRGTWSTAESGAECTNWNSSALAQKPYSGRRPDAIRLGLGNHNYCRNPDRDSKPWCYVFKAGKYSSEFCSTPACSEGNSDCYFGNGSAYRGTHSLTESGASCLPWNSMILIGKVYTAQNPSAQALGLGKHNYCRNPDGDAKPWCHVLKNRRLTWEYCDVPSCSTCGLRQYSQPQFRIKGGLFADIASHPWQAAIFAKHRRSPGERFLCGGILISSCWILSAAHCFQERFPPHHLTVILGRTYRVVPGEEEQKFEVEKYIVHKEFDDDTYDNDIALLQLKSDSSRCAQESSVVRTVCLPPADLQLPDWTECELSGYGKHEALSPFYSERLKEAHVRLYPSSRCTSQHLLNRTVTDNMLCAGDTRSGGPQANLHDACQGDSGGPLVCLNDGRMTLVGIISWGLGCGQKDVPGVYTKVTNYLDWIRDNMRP
substance,measurement,setting,value
biotin–Ahx–DPhe–Ser(Z)–Dht–ArgPP [compound 17],effect on proliferation (percentage confluency),Capan-2 cells [1],no effect
same,labeling of intracellular proteases,[2],did not label any intracellular protease
same,KLK8 kobs/I,"KLK8; KLK8 1 nM, Boc-VPR-AMC 30 µM, 100 mM Na2PO4 0.01% Tween20 pH 8.5, room temperature, 30 min, pseudo first order kinetics, triplicates",140 M^–1 s^–1 and 140 ± 5 M^–1 s^–1
same,selectivity for KLK6 over KLK8,KLK8; ratio of kobs/I,> 70 fold
same,selectivity for KLK6 over tPA,[3],> 600 fold
same,selectivity for KLK6 over uPA,[4],> 600 fold
same,inhibition of recombinant KLK6 versus tPA and uPA,[5],selectively inhibit KLK6 over the two off-targets
same,labeling of endogenous KLK6,endogenous active KLK6,efficiently labels endogenous active KLK6
same,lowest probe concentration detecting active KLK6,endogenous active KLK6; dose-dependent,50 nM
same,KLK7 kobs/I,"KLK7; KLK7 34 nM, substrate 24 5 µM, 100 mM Na2PO4 0.01% Tween20 pH 8.5, room temperature, 30 min, pseudo first order kinetics, triplicates",350 M⁻¹ s⁻¹ and 350 ± 90 M⁻¹ s⁻¹
same,selectivity for KLK6 over KLK7,KLK7; ratio of kobs/I,> 30 fold
same,effect on migration,BxPC-3 cells; [8],no effect
same,effect on invasion,BxPC-3 cells; [9],no effect
same,effect on migration,Capan-2 cells [6]; [8],reduced
same,effect on invasion,Capan-2 cells [6]; [9],reduced
same,KLK6 kobs/I,KLK6,11000 M^–1 s^–1 and 11000 ± 300 M^–1 s^–1
same,KLK6 kobs/I,KLK6; listed as IMP-2352,"11,000 M^–1 s^–1"
same,proteases labeled/enriched over DMSO control,[7],"KLK6, along with two off-targets, uPA and tPA"
